From the NIST ThermoML archive (doi:10.1016/j.fluid.2005.09.012)
Numbers after ± are expanded uncertainties.

Legend:
[1] = refractive index (Na D-line) (dimensionless); conditions: 293.15 K; 101.33 kPa; Liquid
[2] = Liquid; for mass density: 293.15 K, 101.33 kPa

Compound	refractive index [1]	mass density [2] [kg/m3]	also measured
Cc1cccc(C)c1 [1,3-dimethylbenzene]	1.4972 ± 0.0017	864.4 ± 2.1	vapor or sublimation pressure ([2]; 410.35 K): 95.75 ± 9 kPa
ClC(Cl)C(Cl)Cl [1,1,2,2-tetrachloroethane]	1.494 ± 0.0017	1593 ± 4.5	vapor or sublimation pressure ([2]; 417.35 K): 95.75 ± 9 kPa
Cc1ccccc1C [1,2-dimethylbenzene]	1.5055 ± 0.0017	880.1 ± 2.2	vapor or sublimation pressure ([2]; 415.55 K): 95.75 ± 9 kPa
ClC=C(Cl)Cl [trichloroethene]	1.4782 ± 0.0017	1464 ± 4.1	vapor or sublimation pressure ([2]; 357.95 K): 95.75 ± 9 kPa
Cc1ccc(C)cc1 [1,4-dimethylbenzene]	1.4858 ± 0.0017	861 ± 2.1	vapor or sublimation pressure ([2]; 409.35 K): 95.75 ± 9 kPa
Cc1ccccc1O [2-methylphenol]	1.5467 ± 0.0017	1046 ± 2.7	vapor or sublimation pressure ([2]; 461.85 K): 95.75 ± 9.6 kPa
ClC(Cl)=C(Cl)Cl [tetrachloroethene]	1.505 ± 0.0017	1625 ± 4.6	vapor or sublimation pressure ([2]; 392.25 K): 95.75 ± 9 kPa
ClCCCl [1,2-dichloroethane]	1.4196 ± 0.0017	1252.9 ± 3.4	vapor or sublimation pressure ([2]; 355.25 K): 95.75 ± 9 kPa
CCCCCCC [heptane]	1.3876 ± 0.0017	683.8 ± 1.5	vapor or sublimation pressure ([2]; 369.75 K): 95.75 ± 9 kPa
